In patent US5385842A, “Anthraquinones as inhibitors of sulfide production from sulfate-reducing bacteria” (E. I. Du Pont de Nemours and Company, priority 1993, dated 1995):
Counter-ions that a name gives are not always drawn.

These compounds were tested on Desulfovibrio desulfuricans G100A (assay: microbe, parasite or virus in culture). Settings: 10 ppm.
Type: cell-based

Compound | % Inhib. (inhibition of sulfide production) [%]
1,1'-Iminobis[4-amino]9,10-anthracenedione, sulfonated [Acid black 48] | 13.8

Same assay, conditions: Desulfovibrio desulfuricans, G100A, read-out: % Inhib. (inhibition of sulfide production)

Compound | inhibition at 10 ppm [%] | inhibition at 30 ppm [%] | inhibition at 10 µg/mL [%]
O=C1c2ccc(O)c(O)c2C(=O)c2c(O)ccc(O)c21 [Quinalizarin, 1,2,5,8-Tetrahydroxyanthraquinone] | 80 |  | 
Nc1c(Br)cc(O)c2c1C(=O)c1ccccc1C2=O [1-Amino-2-bromo-4-hydroxyanthraquinone] |  | 6.5 | 
Nc1cc2c(cc1Cl)C(=O)c1ccccc1C2=O [2-Amino-3-chloroanthraquinone] |  | 3.9 | 
Cc1ccc2c(c1-c1c(C)ccc3c1C(=O)c1ccccc1C3=O)C(=O)c1ccccc1C2=O [2,2'-Dimethyl-1,1'-bianthraquinone, 2,2'-Dimethyl-[1,1'-bianthracene]-9,9',10,10'-tetrone] |  | 59.7 | 
Cc1cc(Cl)c2c(c1N)C(=O)c1ccccc1C2=O [1-Amino-4-chloro-2-methylanthraquinone] |  | 5.2 | 
Nc1cccc2c1C(=O)c1cccc(Cl)c1C2=O [5-Chloro-1-aminoanthraquinone] | 57.1 |  | 
CC(C)(C)C(=O)Nc1ccc2c(c1)C(=O)c1ccccc1C2=O [2-(2,2,2-Trimethylpropionamido)anthraquinone] |  | 48.1 | 
O=C1c2ccccc2C(=O)c2cc(Cl)ccc21 [2-Chloroanthraquinone] |  | 98.7 | 
CCc1cc(CC)c(Nc2ccc(Nc3c(CC)cc(CC)cc3CC)c3c2C(=O)c2ccccc2C3=O)c(CC)c1 [1,4-Bis[(2,4,6-triethylphenyl)amino]-9,10-anthracenedione] |  | 4.3 | 
O=C1c2ccccc2C(=O)c2cc(CO)ccc21 [2-(Hydroxymethyl)anthraquinone] |  | 87 | 
Cc1ccc(Nc2cccc3c2C(=O)c2cccc(Nc4ccc(C)cc4S(=O)(=O)O)c2C3=O)c(S(=O)(=O)O)c1 [Alizarin violet 3R, 2,2'-[(9,10-Dihydro-9,10-dioxo-1,5-anthracenediyl)-diimino]bis[5-methylbenzenesulfonic acid], di Na salt] | 30.9 |  | 
Nc1c(O)c(S(=O)(=O)O)c(O)c2c1C(=O)c1ccccc1C2=O [Nuclear fast red, 4-Amino-9,10-dihydro-1,3-dihydroxy-9,10-dioxo-2-anthracenesulfonic acid, monosodium salt] | 20.4 |  | 
Nc1ccc(N)c2c1C(=O)c1c(N)ccc(N)c1C2=O [Disperse blue 1, 1,4,5,8-Tetraaminoanthraquinone] |  | 3.9 | 
CN(C)CCOc1ccc2c(c1)C(=O)c1ccc(OCCN(C)C)cc1C2=O [Tilorone analog R11,043DA, 2,6-Bis[2-(dimethylamino)ethoxy]-9,10-anthracenedione] | 98.7 |  | 
O=C1c2ccc(O)cc2C(=O)c2ccc(O)cc21 [2,6-Dihydroxyanthraquinone] | 28.2 |  | 
O=C1c2ccccc2C(=O)c2c1cccc2S(=O)(=O)O [1-Anthraquinonesulfonic acid, Na salt] |  | 3.9 | 
Cc1ccc(S(=O)(=O)Nc2cc(S(=O)(=O)O)c(N)c3c2C(=O)c2ccccc2C3=O)cc1 [1-Amino-9,10-dihydro-4[[(4-methylphenyl)sulfonyl]-amino]-9,10-dioxo-2-anthracenesulfonic acid, Na salt] | 3.9 |  | 
Nc1c(S(=O)(=O)O)ccc2c1C(=O)c1ccccc1C2=O [1-Aminoanthraquinone-2-sulfonic acid, 1-Amino-9,10-dihydro-9,10-dioxo-2-anthracenesulfonic acid] |  | 37.5 | 

Compound | inhibition at 10 ppm [%] | inhibition at 30 ppm [%] | inhibition at 10 µg/mL [%]
Cc1ccc(Nc2ccc(O)c3c2C(=O)c2ccccc2C3=O)c(S(=O)(=O)O)c1 [Solway purple R, 2-[(9,10-Dihydro-4-hydroxy-9,10-dioxo-1-anthracenyl)-amino]-5-methyl-benzenesulfonic acid, Na salt] |  | 9.1 | 
Nc1ccc2c(c1N)C(=O)c1ccccc1C2=O [1,2-Diaminoanthraquinone] | 28.9 |  | 
Nc1ccc(O)c2c1C(=O)c1c(O)ccc(N)c1C2=O [1,5-Diamino-4,8-dihydroxyanthraquinone] |  | 2.6 | 
O=C1c2ccccc2C(=O)c2cc(S(=O)(=O)NCc3ccccc3)ccc21 [N-Benzyl-9,10-dihydro-9,10-dioxo-2-anthracenesulfonamide] |  | 3.9 | 
Cc1c(C)c(O)c2c(c1O)C(=O)c1ccccc1C2=O [2,3-dimethyl-1,4-dihydroxyanthraquinone] |  | 5.7 | 
CNc1ccc(Nc2ccc(C)cc2S(=O)(=O)O)c2c1C(=O)c1ccccc1C2=O [Alizarine astrol B-CF, 2-[[9,10-Dihydro-4-(methylamino)-9,10-dioxo-1-anthracenyl]amino]-5-methyl-benzenesulfonic acid, monosodium salt] | 2.6 |  | 
Nc1ccc(N)c2c1C(=O)c1ccccc1C2=O [1,4-Diaminoanthraquinone] | 27.5 |  | 
O=C1c2ccc(S(=O)(=O)O)cc2C(=O)c2cc(S(=O)(=O)O)ccc21 [9,10-Dihydro-9,10-dioxo-2,7-anthracenedisulfonic acid, di Na salt] |  | 9.1 | 
Cc1ccc(Nc2ccc(O)c3c2C(=O)c2ccccc2C3=O)cc1 [1-Hydroxy-4-(p-toluidino)-anthraquinone, 1-Hydroxy-4-[(4-methylphenyl)amino]-9,10-anthracene-dione] |  | 3.9 | 
CCc1ccc2c(c1)C(=O)c1ccccc1C2=O [2-Ethylanthraquinone] |  |  | 57.1
COc1cccc2c1C(=O)c1c(O)c3c(c(O)c1C2=O)C[C@@](O)(C(C)=O)C[C@@H]3O[C@H]1C[C@H](N)[C@H](O)[C@H](C)O1 [Daunomycin hydrochloride, (8S-cis)-8-Acetyl-10[(3-amino-2,3,6-trideoxy-alpha-L-lyxo-hexopyranosyl)oxy]-7,8,9,10-tetrahydro-6,8,11-trihydroxy-1-methoxy-5,12-naphthacenedione hydrochloride, reference compound] |  | 62.9 | 
Nc1ccc(NC(=O)c2ccccc2)c2c1C(=O)c1ccccc1C2=O [1-Amino-4-benzamidoanthraquinone, N-(4-Amino-9,10-dihydro-9,10-dioxo-1-anthracenyl)-benzamide] |  | 0 | 
Nc1ccc(N)c2c1C(=O)c1cccc([N+](=O)[O-])c1C2=O [1,4-Diamino-5-nitroanthraquinone] |  | 2.7 to 3 | 
Cc1ccc2c(c1N)C(=O)c1ccccc1C2=O [Disperse orange 11, 1-Amino-2-methylanthraquinone] |  | 5.2 | 
O=C1c2ccccc2C(=O)c2cc(S(=O)(=O)O)ccc21 [Anthraquinone-2-sulfonic acid sodium salt monohydrate] | 17 |  | 
O=C1c2cccc(S(=O)(=O)O)c2C(=O)c2cccc([N+](=O)[O-])c21 [5-Nitroanthraquinone-1-sulfonic acid, 9,10-Dihydro-5-nitro-9,10-dioxo-1-anthracenesulfonic acid] | 66 |  | 
C=CS(=O)(=O)c1cccc(Nc2cc(S(=O)(=O)O)c(N)c3c2C(=O)c2ccccc2C3=O)c1 [Acid blue 215, 1-Amino-4-[[3-(ethenylsulfonyl)phenyl]-9,10-dihydro-9,10-dioxo]-2-anthracene sulfonic acid, monosodium salt] | 19.7 |  | 
O=C1c2ccc3nc(-c4ccccc4)sc3c2C(=O)c2ccc3nc(-c4ccccc4)sc3c21 [Indanthrene yellow GCN, 2,8-Diphenyl-anthra[2,1-d:6,5-d']bisthiazole-6,12-dione] | 15.6 |  | 
